Laboratory results taken from PubChem BioAssay (NCI).
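Growth conditions: 96-well plates. Treatment: test compound, 48 hours, 5 concentrations. Analysis: linear interpolation between bracketing concentrations; unreached endpoints set to highest concentration. GI50 = concentration required for 50% inhibition of growth. TGI denotes the concentration required for complete inhibition of growth.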

Key:
Assay in all cases: growth of human tumour cells (NCI), 48 h
COLO 205 colon = tested on: COLO 205 colon
HCT-15 colon = tested on: HCT-15 colon
HS 578T breast = tested on: HS 578T breast
NCI-H23 lung = tested on: NCI-H23 lung
PC-3 prostate = tested on: PC-3 prostate
RPMI-8226 leukemia = tested on: RPMI-8226 leukemia
SF-268 CNS = tested on: SF-268 CNS
SR leukemia = tested on: SR leukemia
SW-620 colon = tested on: SW-620 colon
UACC-62 melanoma = tested on: UACC-62 melanoma

Compound	GI50 (COLO 205 colon) [µM]	TGI (COLO 205 colon) [µM]	GI50 (HCT-15 colon) [µM]	TGI (HCT-15 colon) [µM]	GI50 (HS 578T breast) [µM]	TGI (HS 578T breast) [µM]	GI50 (NCI-H23 lung) [µM]	TGI (NCI-H23 lung) [µM]	GI50 (PC-3 prostate) [µM]	TGI (PC-3 prostate) [µM]	GI50 (RPMI-8226 leukemia) [µM]	TGI (RPMI-8226 leukemia) [µM]	GI50 (SF-268 CNS) [µM]	TGI (SF-268 CNS) [µM]	GI50 (SR leukemia) [µM]	TGI (SR leukemia) [µM]	GI50 (SW-620 colon) [µM]	TGI (SW-620 colon) [µM]	GI50 (UACC-62 melanoma) [µM]	TGI (UACC-62 melanoma) [µM]
NS(=O)(=O)c1ccc(N=Nc2c(O)[nH]c3cccc(CCc4ccncc4)c23)cc1	> 25	> 25	> 25	> 25	> 25	> 25	> 25	> 25	> 25	> 25	> 25	> 25	> 25	> 25	> 25	> 25	> 25	> 25	> 25	> 25
COC(=O)Nc1nc2ccc(C(=O)C3CC3)cc2[nH]1	0.392	10.4	0.385	> 100	0.28	0.853	0.47	> 27.6	0.346	> 100	0.219	0.696	0.573	31.3	0.455	> 100	0.297	> 100	0.487	> 100
COc1cc(C)cc(C(=O)OCc2ccccc2)c1C1=C(Cl)C(=O)C(Cl)=CC1=O	–	> 10	–	> 10	–	> 10	–	> 10	–	> 10	–	> 10	–	> 10	–	> 7.85	–	> 10	–	> 10
COc1ccc2c(c1)OC(N)=C(C#N)C2c1ccc(F)c(F)c1 (stereo not drawn)	0.437	5.2	0.348	> 59	0.426	> 46.3	1.15	> 100	0.569	> 100	0.455	31.7	0.754	> 65.4	0.325	> 52.2	0.398	> 100	0.418	> 100
CCOC(=O)c1cc2c(OC)cc(OC)cc2oc1=O	–	> 100	–	> 100	–	> 100	–	> 100	–	> 100	–	> 100	–	> 100	–	> 100	–	> 100	–	> 100
O=P1(O)c2ccccc2CSCc2ccccc21	–	> 100	–	> 100	–	> 100	–	> 100	–	> 100	–	–	–	> 100	–	> 100	–	> 100	–	> 100
Nc1n[nH]c2ccc([C@H]3[C@@H]4C5CCC(C5)[C@@H]4c4c(ccc5[nH]ncc45)N3S(=O)(=O)C3CC3)cc12 (stereo partly drawn)	0.193	6.31	0.198	> 28.8	0.17	3.31	0.225	9.31	0.185	9.85	0.176	7.46	0.618	14	0.15	–	0.203	> 33.7	0.137	5.54
